# Experimental data published in US6416585B1, “Method for crystallizing polyols and sugars” (Vomm Chemipharma S.r.l., priority 1999, dated 2002).
# Experiment: solubility of the crystallized granular sorbitol compared with the prior art
# Assay type: physicochemical
# Conditions: sorbitol granules of Example 1 after two hours long maturation; in comparison with the prior art
smiles,measurement,value
"OC[C@@H](O)[C@@H](O)[C@H](O)[C@@H](O)CO [sorbitol granules, sorbitol]",solubility,definitely improved
